These results are taken from PubChem BioAssay (NCI).

Among the test systems are 786-0 renal; ACHN renal; DU-145 prostate; HOP-62 NSCLC; HOP-92 NSCLC; HT29 colon; K-562 leukemia; M14 melanoma; OVCAR-5 ovarian; RXF 393 renal.
What all share (experiment): NCI-60 cell line screen, 48 h

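Results reflect a 48-hour exposure of cells in 96-well plates to compound at five concentrations. GI50 marks 50% less growth. The concentration for full growth arrest is given as TGI.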

As to `NC12CC3CC4C1CC1CC2C(C3)C4(N)C1`, the TGI with 786-0 renal, in the test on ACHN renal, in the test with DU-145 prostate, in the test on HOP-62 NSCLC, in the test with HOP-92 NSCLC and with HT29 colon was above 100 µM throughout. For the same compound, the TGI in the test with K-562 leukemia, in the test on M14 melanoma, in the test on OVCAR-5 ovarian and in the test with RXF 393 renal was above 100 µM each time.

Consider `Nc1nc(N)c2nnn(C[C@H]3CC[C@@H](CO)C3)c2n1`, for which the TGI with 786-0 renal, in the test with ACHN renal, in the test with DU-145 prostate, in the test with HOP-62 NSCLC, in the test on HOP-92 NSCLC and with HT29 colon was above 100 µM throughout. In addition, the TGI in the test with K-562 leukemia, in the test on M14 melanoma, with OVCAR-5 ovarian and in the test with RXF 393 renal was above 100 µM in each case.

For the compound `CC1=C(C(=O)Nc2ccccc2)C(c2ccc(C)o2)C(C#N)=C(SCc2ccccc2)N1` (stereo not drawn), the TGI is above 100 µM in the test with 786-0 renal; above 100 µM in the test with ACHN renal; above 100 µM in the test on DU-145 prostate; above 100 µM in the test with HOP-62 NSCLC; above 66.4 µM with HOP-92 NSCLC; above 100 µM in the test on HT29 colon. In addition, the TGI with K-562 leukemia, with M14 melanoma, in the test with OVCAR-5 ovarian and with RXF 393 renal was above 100 µM in each case.

On to `COc1cc2c(cc1OC)C(Cc1ccccc1CCCl)=NCC2`, for which the TGI with 786-0 renal, in the test on ACHN renal, with DU-145 prostate, with HOP-62 NSCLC, in the test on HOP-92 NSCLC and in the test on HT29 colon was above 100 µM in each case. Also, the TGI in the test with K-562 leukemia, in the test with M14 melanoma, with OVCAR-5 ovarian and with RXF 393 renal was above 100 µM each time.

Turning to `COc1cc2c3c(n(Cc4ccccc4)c(=O)c2cc1OC)-c1ccccc1C3=O`, the TGI in the test with 786-0 renal, with ACHN renal, in the test on DU-145 prostate, in the test on HOP-62 NSCLC, in the test with HOP-92 NSCLC and in the test with HT29 colon was above 100 µM each time. For the same compound, the TGI with K-562 leukemia, in the test with M14 melanoma, in the test with OVCAR-5 ovarian and with RXF 393 renal was above 100 µM in each case.

Take `O=C(N/N=C\c1ccc([N+](=O)[O-])cc1)c1ccccc1Nc1ccccc1C(=O)N/N=C/c1ccc([N+](=O)[O-])cc1`: the TGI with 786-0 renal, in the test on ACHN renal, with DU-145 prostate, in the test on HOP-62 NSCLC, in the test on HOP-92 NSCLC and in the test on HT29 colon was above 100 µM throughout. Moreover, the TGI with K-562 leukemia is above 100 µM; with M14 melanoma it was 79.7 µM; with OVCAR-5 ovarian, above 100 µM; in the test on RXF 393 renal, above 100 µM.

As to `Cc1ccc([N+](=O)[O-])cc1S(=O)(=O)Nc1ccc(C2=NNC(c3cccs3)C2)cc1` (stereo not drawn), the TGI was above 100 µM in the test on 786-0 renal; 82.9 µM in the test on ACHN renal; above 100 µM in the test with DU-145 prostate; 60.2 µM in the test on HOP-62 NSCLC; above 100 µM in the test with HOP-92 NSCLC; above 100 µM in the test with HT29 colon. The TGI in the test with K-562 leukemia was above 100 µM; in the test on M14 melanoma, 68.8 µM; in the test with OVCAR-5 ovarian, above 100 µM; with RXF 393 renal it was 38.7 µM.

Take `Oc1ccc2ccccc2c1N=Nc1ccccn1`: the GI50 was 423 nM in the test with ACHN renal; 1830 nM in the test with DU-145 prostate; 1410 nM with HOP-62 NSCLC; 3.02 µM in the test on HOP-92 NSCLC; 523 nM with HT29 colon; 600 nM in the test with K-562 leukemia. Moreover, the results for the GI50 in the test on M14 melanoma, in the test on OVCAR-5 ovarian and in the test with RXF 393 renal were 1410 nM, 4 µM and 3.44 µM, respectively. The TGI with ACHN renal, in the test with DU-145 prostate, in the test on HOP-62 NSCLC, in the test with HOP-92 NSCLC, in the test on HT29 colon and with K-562 leukemia was above 100 µM in each case. Also, the values for the TGI in the test on M14 melanoma, with OVCAR-5 ovarian and with RXF 393 renal were 7.1 µM, above 100 µM and above 100 µM, respectively.

For the compound `CCOC(=O)C(C)(C)/C=C\C(Cl)=C(Cl)Cl`, the TGI with 786-0 renal, with ACHN renal, with DU-145 prostate, in the test on HOP-62 NSCLC, in the test with HOP-92 NSCLC and with HT29 colon was above 100 µM each time. The TGI with K-562 leukemia, in the test with M14 melanoma, in the test with OVCAR-5 ovarian and in the test with RXF 393 renal was above 100 µM each time.

`O=S(=O)(O)c1ccc2c(N=Nc3ccccc3Cl)c(O)ccc2c1`: the TGI in the test with 786-0 renal, in the test with ACHN renal, in the test with DU-145 prostate, in the test with HOP-62 NSCLC, with HOP-92 NSCLC and in the test on HT29 colon was above 100 µM each time. The TGI in the test with K-562 leukemia, in the test on M14 melanoma, in the test on OVCAR-5 ovarian and in the test with RXF 393 renal was above 100 µM throughout.

On to `COc1cc(C(=O)Nc2c3ccccc3nc3ccccc23)cc(OC)c1OC`, for which the TGI is above 100 µM in the test on 786-0 renal; above 100 µM in the test on ACHN renal; above 100 µM in the test on DU-145 prostate; above 80.1 µM in the test with HOP-62 NSCLC; above 100 µM in the test on HOP-92 NSCLC; above 100 µM in the test on HT29 colon. The TGI in the test with K-562 leukemia, in the test with M14 melanoma, with OVCAR-5 ovarian and in the test with RXF 393 renal was above 100 µM in each case.

On to `Cc1ccc(/C=N/Nc2nncc3ccccc23)s1`, for which the TGI in the test on 786-0 renal is above 95.1 µM; with ACHN renal it was above 100 µM; in the test on DU-145 prostate, above 31.6 µM; with HOP-62 NSCLC, above 77.4 µM; in the test with HOP-92 NSCLC, above 100 µM; with HT29 colon it was above 100 µM. Besides, the TGI in the test with K-562 leukemia, in the test with M14 melanoma, in the test with OVCAR-5 ovarian and with RXF 393 renal was above 100 µM each time.

On to `CC(=O)N1N=C(N)CC1=O`, for which the TGI in the test on 786-0 renal, with ACHN renal, in the test with DU-145 prostate, in the test with HOP-62 NSCLC, with HOP-92 NSCLC and in the test with HT29 colon was above 100 µM in each case. Besides, the TGI in the test on K-562 leukemia, in the test with M14 melanoma, in the test on OVCAR-5 ovarian and with RXF 393 renal was above 100 µM in each case.
